Experiment: recombinant UMI read abundance after kanamycin selection (control-corrected) (log10(CPM+1)); higher = more efficient recombination; extreme values may be limits of the assay; sequences stand for … in AGTGCAGAGAAAATCGGCCAGTTTTCTCTGCCTGCAGTCCGCATGCCGTGGGACCCCTTGGGTTCTAACCTGTTGCCTAGATTTATGCAGCGGACTGCCTTTCTCCCAAAGTGATAAACCGG…AGGTTGGTTTCACT; site = the 11-nt donor
Method: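 Pooled E. coli donor-specificity screen for the IS621 bridge recombinase. Each library member carries a reprogrammed 11-nt donor and a full-length LE bridge RNA expressed in cis from the natural promoter, with a paired donor-binding loop (8-nt LDG + 4-nt RDG) and a target-binding loop fixed to T5. It is co-electroporated with a T5 target plasmid; recombinase is induced with 0.07 mM IPTG and recombinants are selected on kanamycin. UMIs are counted as CPM, averaged over two biological replicates and corrected by the unselected control. Molecule = full bridge RNA written as DNA, built from the T5 scaffold: LDG = donor specificity nt 1-8, RDG = reverse complement of nt 8-11.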
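Note: IS621 bridge recombinase in Escherichia coli cells against a fixed T5 target plasmid.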

| Sequence | recombinant UMI read abundance (log10) |
| --- | --- |
| ACAGTATCATGGACCGGTTTTCCCGGTAATCCGTATTTGCG (site ACAGTATCTGG) | 2.14 |
| ACAGTATCATGGACCGGTTTTCCCGGTAATCCGTATTTGCG (site ACAGTATCTTG) | 2.57 |
| ACAGTATCATGGACCGGTTTTCCCGGTAATCCGTATTTGTG (site ACAGTATCTCA) | 3.03 |
| ACAGTATCATGGACCGGTTTTCCCGGTAATCCGTATTTGTG (site ACAGTATCTTG) | 1.03 |
| ACATAAGCATGGACCGGTTTTCCCGGTAATCCGTATTTGAA (site ACATAAGCTTT) | 2.7 |
| ACATATACATGGACCGGTTTTCCCGGTAATCCGTATTTGTG (site ACATATACTCA) | 1.81 |
| ACATATACATGGACCGGTTTTCCCGGTAATCCGTATTTGTG (site ACATCTACTCA) | 0.0121 |
| ACATATACATGGACCGGTTTTCCCGGTAATCCGTATTTGTG (site ACATGTACTCA) | 0.021 |
| ACATATACATGGACCGGTTTTCCCGGTAATCCGTATTTGTG (site ACATTTACTCA) | 0.0115 |
| ACATCCACATGGACCGGTTTTCCCGGTAATCCGTATTTGTG (site ACATCAACTCA) | 0.0218 |
| ACATCCACATGGACCGGTTTTCCCGGTAATCCGTATTTGTG (site ACATCCACTCA) | 0.309 |
| ACATCCACATGGACCGGTTTTCCCGGTAATCCGTATTTGTG (site ACATCGACTCA) | 0.00941 |
| ACATCCACATGGACCGGTTTTCCCGGTAATCCGTATTTGTG (site ACATCTACTCA) | 0.0155 |
| ACATCTACATGGACCGGTTTTCCCGGTAATCCGTATTTGCG (site ACATCTACTCA) | 0.195 |
| ACATCTACATGGACCGGTTTTCCCGGTAATCCGTATTTGCG (site ACATCTACTCC) | 0.0147 |
| ACATCTACATGGACCGGTTTTCCCGGTAATCCGTATTTGCG (site ACATCTACTCG) | 1.2 |
| ACATCTACATGGACCGGTTTTCCCGGTAATCCGTATTTGCG (site ACATCTACTCT) | 0.353 |
| ACATCTACATGGACCGGTTTTCCCGGTAATCCGTATTTGGG (site ACATCTACTCA) | 0.0151 |
| ACATCTACATGGACCGGTTTTCCCGGTAATCCGTATTTGGG (site ACATCTACTCC) | 0.54 |

| Sequence | recombinant UMI read abundance (log10) |
| --- | --- |
| ACATCTACATGGACCGGTTTTCCCGGTAATCCGTATTTGGG (site ACATCTACTCG) | 0.00576 |
| ACATCTACATGGACCGGTTTTCCCGGTAATCCGTATTTGGG (site ACATCTACTCT) | 0.0169 |
| ACATCTACATGGACCGGTTTTCCCGGTAATCCGTATTTGTG (site AAATCTACTCA) | 0.00563 |
| ACATCTACATGGACCGGTTTTCCCGGTAATCCGTATTTGTG (site ACAACTACTCA) | 0.00896 |
| ACATCTACATGGACCGGTTTTCCCGGTAATCCGTATTTGTG (site ACACCTACTCA) | 0.00963 |
| ACATCTACATGGACCGGTTTTCCCGGTAATCCGTATTTGTG (site ACAGCTACTCA) | 0.0992 |
| ACATCTACATGGACCGGTTTTCCCGGTAATCCGTATTTGTG (site ACATATACTCA) | 0.324 |
| ACATCTACATGGACCGGTTTTCCCGGTAATCCGTATTTGTG (site ACATCAACTCA) | 0.0141 |
| ACATCTACATGGACCGGTTTTCCCGGTAATCCGTATTTGTG (site ACATCCACTCA) | 0.0072 |
| ACATCTACATGGACCGGTTTTCCCGGTAATCCGTATTTGTG (site ACATCGACTCA) | 0.0136 |
| ACATCTACATGGACCGGTTTTCCCGGTAATCCGTATTTGTG (site ACATCTACTAA) | 0.044 |
| ACATCTACATGGACCGGTTTTCCCGGTAATCCGTATTTGTG (site ACATCTACTCA) | 0.552 |
| ACATCTACATGGACCGGTTTTCCCGGTAATCCGTATTTGTG (site ACATCTACTCC) | 0.0178 |
| ACATCTACATGGACCGGTTTTCCCGGTAATCCGTATTTGTG (site ACATCTACTCG) | 0.279 |
| ACATCTACATGGACCGGTTTTCCCGGTAATCCGTATTTGTG (site ACATCTACTCT) | 0.188 |
| ACATCTACATGGACCGGTTTTCCCGGTAATCCGTATTTGTG (site ACATCTACTGA) | 0 |
| ACATCTACATGGACCGGTTTTCCCGGTAATCCGTATTTGTG (site ACATCTACTTA) | 0 |
| ACATCTACATGGACCGGTTTTCCCGGTAATCCGTATTTGTG (site ACATCTCCTCA) | 0.0291 |
| ACATCTACATGGACCGGTTTTCCCGGTAATCCGTATTTGTG (site ACATCTGCTCA) | 0.0534 |

| Sequence | recombinant UMI read abundance (log10) |
| --- | --- |
| ACATCTACATGGACCGGTTTTCCCGGTAATCCGTATTTGTG (site ACATCTTCTCA) | 0.234 |
| ACATCTACATGGACCGGTTTTCCCGGTAATCCGTATTTGTG (site ACATGTACTCA) | 0.023 |
| ACATCTACATGGACCGGTTTTCCCGGTAATCCGTATTTGTG (site ACATTTACTCA) | 0.319 |
| ACATCTACATGGACCGGTTTTCCCGGTAATCCGTATTTGTG (site ACCTCTACTCA) | 0.0111 |
| ACATCTACATGGACCGGTTTTCCCGGTAATCCGTATTTGTG (site ACGTCTACTCA) | 0.0191 |
| ACATCTACATGGACCGGTTTTCCCGGTAATCCGTATTTGTG (site ACTTCTACTCA) | 0.371 |
| ACATCTACATGGACCGGTTTTCCCGGTAATCCGTATTTGTG (site AGATCTACTCA) | 0.00667 |
| ACATCTACATGGACCGGTTTTCCCGGTAATCCGTATTTGTG (site ATATCTACTCA) | 0.245 |
| ACATCTACATGGACCGGTTTTCCCGGTAATCCGTATTTGTG (site CCATCTACTCA) | 0.465 |
| ACATCTACATGGACCGGTTTTCCCGGTAATCCGTATTTGTG (site GCATCTACTCA) | 0.305 |
| ACATCTACATGGACCGGTTTTCCCGGTAATCCGTATTTGTG (site TCATCTACTCA) | 0.0183 |
| ACATGGTCATGGACCGGTTTTCCCGGTAATCCGTATTTGTC (site ACATGGTCTGA) | 1.81 |
| ACATTACCATGGACCGGTTTTCCCGGTAATCCGTATTTGCA (site ACAGTATCTTG) | 1.21 |
| ACATTACCATGGACCGGTTTTCCCGGTAATCCGTATTTGCA (site ACATTACCTTG) | 0 |
| ACATTATCATGGACCGGTTTTCCCGGTAATCCGTATTTGCC (site ACAGTATCTTG) | 0 |
| ACATTATCATGGACCGGTTTTCCCGGTAATCCGTATTTGCC (site ACATTATCTGG) | 2.56 |
| ACATTGACATGGACCGGTTTTCCCGGTAATCCGTATTTGCC (site ACATTGACTGG) | 2 |
| ACCACCGCATGGACCGGTTTTCCCGGTAATCCGTATTTGCG (site ACCACCGCTCG) | 0.455 |
| ACCACCGCATGGACCGGTTTTCCCGGTAATCCGTATTTGCG (site CCCACCGCTCG) | 0.221 |

— the supplement of paper PMC11208160
